Results on one compound are retold here after ChEMBL document CHEMBL4007416, “Thieno[3,2-b]pyrrole-5-carboxamides as New Reversible Inhibitors of Histone Lysine Demethylase KDM1A/LSD1. Part 2: Structure-Based Drug Design and Structure-Activity Relationship” (J Med Chem, 2017).

The source made the active and inactive calls. No cut-off for these calls is given here.

In assay [1] the target is T1, Lysine-specific histone demethylase 2 (Homo sapiens, UniProt Q8NB78).
T1 sequence (Q8NB78 whole entry): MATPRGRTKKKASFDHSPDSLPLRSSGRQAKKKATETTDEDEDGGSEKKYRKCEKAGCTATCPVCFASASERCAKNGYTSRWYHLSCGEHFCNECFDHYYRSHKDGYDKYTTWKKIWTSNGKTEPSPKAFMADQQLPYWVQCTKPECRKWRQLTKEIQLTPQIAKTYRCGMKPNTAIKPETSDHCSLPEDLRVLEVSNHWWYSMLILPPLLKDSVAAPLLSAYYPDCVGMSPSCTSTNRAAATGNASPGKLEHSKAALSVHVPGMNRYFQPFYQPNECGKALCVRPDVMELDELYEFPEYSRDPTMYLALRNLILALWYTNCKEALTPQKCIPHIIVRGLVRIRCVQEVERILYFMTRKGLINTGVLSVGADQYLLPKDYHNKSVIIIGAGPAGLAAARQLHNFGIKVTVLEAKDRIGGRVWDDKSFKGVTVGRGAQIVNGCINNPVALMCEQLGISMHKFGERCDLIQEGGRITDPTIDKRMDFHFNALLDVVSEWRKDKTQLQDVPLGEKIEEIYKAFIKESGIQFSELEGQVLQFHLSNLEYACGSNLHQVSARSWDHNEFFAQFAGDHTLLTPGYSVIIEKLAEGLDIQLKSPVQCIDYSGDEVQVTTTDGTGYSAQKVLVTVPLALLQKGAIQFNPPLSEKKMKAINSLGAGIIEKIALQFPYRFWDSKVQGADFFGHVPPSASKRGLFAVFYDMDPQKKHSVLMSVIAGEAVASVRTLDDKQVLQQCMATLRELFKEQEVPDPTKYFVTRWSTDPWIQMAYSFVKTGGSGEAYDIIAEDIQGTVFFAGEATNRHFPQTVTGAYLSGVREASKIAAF
Kind of assay: Inhibition of KDM1B (unknown origin).

Assay [2] has as its system THP-1. The assay is described as follows: Anticlonogenic activity against human THP1 cells assessed as inhibition of methylcellulose colony formation at 0.5 uM after 13 days relative to control. In kind it is functional. The conditions noted are these: THP-1, 312 h.
The subject of assay [3] is THP-1. Kind of assay: Induction of apoptosis in human THP1 cells at 0.5 uM after 72 hrs by Annexin V-propidium iodide double staining based flow cytometry. The class given is functional, cell-based. For orientation: A flow cytometer gives signals particle by particle.
Assay [4] has as its target T2, Amine oxidase [flavin-containing] A (Homo sapiens, UniProt P21397).
T2 sequence (P21397 whole entry): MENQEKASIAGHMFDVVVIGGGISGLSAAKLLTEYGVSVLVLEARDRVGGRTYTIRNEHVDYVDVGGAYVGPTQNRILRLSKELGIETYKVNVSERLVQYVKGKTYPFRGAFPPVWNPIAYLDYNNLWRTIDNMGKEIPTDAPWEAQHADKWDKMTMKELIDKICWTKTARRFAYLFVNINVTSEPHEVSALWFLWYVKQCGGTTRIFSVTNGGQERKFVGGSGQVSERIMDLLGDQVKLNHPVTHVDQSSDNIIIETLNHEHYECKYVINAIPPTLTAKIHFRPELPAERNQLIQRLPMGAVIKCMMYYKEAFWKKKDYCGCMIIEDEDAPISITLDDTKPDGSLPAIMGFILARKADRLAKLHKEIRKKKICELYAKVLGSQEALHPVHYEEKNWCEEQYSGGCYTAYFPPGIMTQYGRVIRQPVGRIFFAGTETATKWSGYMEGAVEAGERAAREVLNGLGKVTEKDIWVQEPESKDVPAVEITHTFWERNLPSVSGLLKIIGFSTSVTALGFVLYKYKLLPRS
The assay is described as follows: Inhibition of recombinant human MAOA incubated for 15 mins measured after 30 mins by luminescence-Glo assay.

Assay [5] has as its system THP-1. The assay is described as follows: Cell cycle arrest in human THP1 cells at 0.5 uM after 72 hrs by propidium iodide staining based flow cytometry. The class given is functional.

`N[C@H]1CC[C@H](N[C@@H]2C[C@H]2c2ccccc2)CC1`: the results for the IC50 in assay [1] and in assay [4] were 12.9 µM and 41.3 µM, respectively. Besides, in assay [2], the inhibition (as a rule, the percentage by which the read-out fell short of the control) at 0.5 µM amounted to 70%. In addition, the result in assay [3] and in assay [5] was inactive.
